Results as given in ChEMBL document CHEMBL5236661, “A new selective inhibitor for IMP-1 metallo-β-lactamase, 3Z,5E-octa-3,5-diene-1,3,4-tricarboxylic acid-3,4-anhydride” (Bioorg Med Chem, 2023).
≈ marks a conversion by molar mass, not a printed value. Calls of active or inactive are those of the source. The rule behind the calls is not given here.

How the values were obtained:
[1] = Inhibition of bacterial Metallo-beta-lactamase IMP-1 using nitrocefin as substrate pre-incubated for 15 mins followed by substrate addition by microplate reader; parameters: species or system Bacteria
Escherichia coli [2] = assay: Antibacterial activity against Escherichia coli KB366 expressing IMP-1 assessed as inhibition of bacterial growth at 100 ug in presence of meropenem incubated overnight by paper disk method; assay type: functional; settings: read-out: IZ
Escherichia coli [3] = assay: Antibacterial activity against Escherichia coli KB366 expressing IMP-1 assessed as inhibition of bacterial growth at 30 ug in presence of meropenem incubated overnight by paper disk method; assay type: functional; settings: read-out: IZ
Escherichia coli [4] = assay: Antibacterial activity against Escherichia coli KB366 expressing IMP-1 assessed as inhibition of bacterial growth at 10 ug in presence of meropenem incubated overnight by paper disk method; assay type: functional; settings: read-out: IZ
Escherichia coli [5] = assay: Antibacterial activity against Escherichia coli KB366 expressing IMP-1 assessed as inhibition of bacterial growth at 3 ug in presence of meropenem incubated overnight by paper disk method; assay type: functional; settings: read-out: IZ
Escherichia coli [6] = assay: Antibacterial activity against Escherichia coli KB366 expressing IMP-1 assessed as inhibition of bacterial growth at 1 ug in presence of meropenem incubated overnight by paper disk method; assay type: functional; settings: read-out: IZ
Escherichia coli [7] = assay: Antibacterial activity against Escherichia coli KB366 expressing IMP-1 assessed as inhibition of bacterial growth at 0.3 ug in presence of meropenem incubated overnight by paper disk method; assay type: functional; settings: read-out: IZ
Escherichia coli [8] = assay: Antibacterial activity against Escherichia coli KB366 expressing IMP-1 assessed as inhibition of bacterial growth at 0.1 ug in presence of meropenem incubated overnight by paper disk method; assay type: functional; settings: read-out: IZ
Escherichia coli [9] = assay: Antibacterial activity against Escherichia coli KB366 expressing IMP-1 assessed as inhibition of bacterial growth at 0.03 ug in presence of meropenem incubated overnight by paper disk method; assay type: functional; settings: read-out: IZ
Escherichia coli [10] = assay: Antibacterial activity against Escherichia coli KB366 expressing IMP-1 assessed as inhibition of bacterial growth at 0.01 ug in presence of meropenem incubated overnight by paper disk method; assay type: functional; settings: dose 0.01 µg
Escherichia coli [11] = assay: Antibacterial activity against Escherichia coli KB366 expressing IMP-1 assessed as inhibition of bacterial growth at 100 ug in absence of meropenem incubated overnight by paper disk method; assay type: functional, organism-based; settings: dose 100.0 µg
Escherichia coli [12] = assay: Antibacterial activity against Escherichia coli KB366 expressing IMP-1 assessed as inhibition of bacterial growth at 30 ug in absence of meropenem incubated overnight by paper disk method; assay type: functional, organism-based; settings: dose 30.0 µg
Escherichia coli [13] = assay: Antibacterial activity against Escherichia coli KB366 expressing IMP-1 assessed as inhibition of bacterial growth at 10 ug in absence of meropenem incubated overnight by paper disk method; assay type: functional, organism-based; settings: dose 10.0 µg
Escherichia coli [14] = assay: Antibacterial activity against Escherichia coli KB366 expressing IMP-1 assessed as inhibition of bacterial growth at 3 ug in absence of meropenem incubated overnight by paper disk method; assay type: functional, organism-based; settings: dose 3.0 µg
Escherichia coli [15] = assay: Antibacterial activity against Escherichia coli KB366 expressing IMP-1 assessed as inhibition of bacterial growth at 1 ug in absence of meropenem incubated overnight by paper disk method; assay type: functional, organism-based; settings: dose 1.0 µg
Escherichia coli [16] = assay: Antibacterial activity against Escherichia coli KB366 expressing IMP-1 assessed as inhibition of bacterial growth at 0.3 ug in absence of meropenem incubated overnight by paper disk method; assay type: functional, organism-based; settings: dose 0.3 µg
Escherichia coli [17] = assay: Antibacterial activity against Escherichia coli KB366 expressing IMP-1 assessed as inhibition of bacterial growth at 0.1 ug in absence of meropenem incubated overnight by paper disk method; assay type: functional, organism-based; settings: dose 0.1 µg
Escherichia coli [18] = assay: Antibacterial activity against Escherichia coli KB366 expressing IMP-1 assessed as inhibition of bacterial growth at 0.03 ug in absence of meropenem incubated overnight by paper disk method; assay type: functional, organism-based; settings: dose 0.03 µg
Escherichia coli [19] = assay: Antibacterial activity against Escherichia coli KB366 expressing IMP-1 assessed as inhibition of bacterial growth at 0.01 ug in absence of meropenem incubated overnight by paper disk method; assay type: functional, organism-based; settings: dose 0.01 µg
Pseudomonas aeruginosa [20] = assay: Antibacterial activity against Pseudomonas aeruginosa KB367 expressing IMP-1 assessed as inhibition of bacterial growth at 100 ug in presence of meropenem incubated overnight by paper disk method; assay type: functional; settings: read-out: IZ
Pseudomonas aeruginosa [21] = assay: Antibacterial activity against Pseudomonas aeruginosa KB367 expressing IMP-1 assessed as inhibition of bacterial growth at 30 ug in presence of meropenem incubated overnight by paper disk method; assay type: functional; settings: read-out: IZ
Pseudomonas aeruginosa [22] = assay: Antibacterial activity against Pseudomonas aeruginosa KB367 expressing IMP-1 assessed as inhibition of bacterial growth at 10 ug in presence of meropenem incubated overnight by paper disk method; assay type: functional; settings: read-out: IZ
Pseudomonas aeruginosa [23] = assay: Antibacterial activity against Pseudomonas aeruginosa KB367 expressing IMP-1 assessed as inhibition of bacterial growth at 3 ug in presence of meropenem incubated overnight by paper disk method; assay type: functional; settings: read-out: IZ
Pseudomonas aeruginosa [24] = assay: Antibacterial activity against Pseudomonas aeruginosa KB367 expressing IMP-1 assessed as inhibition of bacterial growth at 1 ug in presence of meropenem incubated overnight by paper disk method; assay type: functional
Pseudomonas aeruginosa [25] = assay: Antibacterial activity against Pseudomonas aeruginosa KB367 expressing IMP-1 assessed as inhibition of bacterial growth at 0.3 ug in presence of meropenem incubated overnight by paper disk method; assay type: functional, organism-based; settings: dose 0.3 µg
Pseudomonas aeruginosa [26] = assay: Antibacterial activity against Pseudomonas aeruginosa KB367 expressing IMP-1 assessed as inhibition of bacterial growth at 0.1 ug in presence of meropenem incubated overnight by paper disk method; assay type: functional, organism-based; settings: dose 0.1 µg
Pseudomonas aeruginosa [27] = assay: Antibacterial activity against Pseudomonas aeruginosa KB367 expressing IMP-1 assessed as inhibition of bacterial growth at 0.03 ug in presence of meropenem incubated overnight by paper disk method; assay type: functional, organism-based; settings: dose 0.03 µg
Pseudomonas aeruginosa [28] = assay: Antibacterial activity against Pseudomonas aeruginosa KB367 expressing IMP-1 assessed as inhibition of bacterial growth at 0.01 ug in presence of meropenem incubated overnight by paper disk method; assay type: functional, organism-based; settings: dose 0.01 µg
Pseudomonas aeruginosa [29] = assay: Antibacterial activity against Pseudomonas aeruginosa KB367 expressing IMP-1 assessed as inhibition of bacterial growth at 100 ug in absence of meropenem incubated overnight by paper disk method; assay type: functional, organism-based; settings: dose 100.0 µg
Pseudomonas aeruginosa [30] = assay: Antibacterial activity against Pseudomonas aeruginosa KB367 expressing IMP-1 assessed as inhibition of bacterial growth at 30 ug in absence of meropenem incubated overnight by paper disk method; assay type: functional, organism-based; settings: dose 30.0 µg
Pseudomonas aeruginosa [31] = assay: Antibacterial activity against Pseudomonas aeruginosa KB367 expressing IMP-1 assessed as inhibition of bacterial growth at 10 ug in absence of meropenem incubated overnight by paper disk method; assay type: functional, organism-based; settings: dose 10.0 µg
Pseudomonas aeruginosa [32] = assay: Antibacterial activity against Pseudomonas aeruginosa KB367 expressing IMP-1 assessed as inhibition of bacterial growth at 3 ug in absence of meropenem incubated overnight by paper disk method; assay type: functional, organism-based; settings: dose 3.0 µg
Pseudomonas aeruginosa [33] = assay: Antibacterial activity against Pseudomonas aeruginosa KB367 expressing IMP-1 assessed as inhibition of bacterial growth at 1 ug in absence of meropenem incubated overnight by paper disk method; assay type: functional, organism-based; settings: dose 1.0 µg
Pseudomonas aeruginosa [34] = assay: Antibacterial activity against Pseudomonas aeruginosa KB367 expressing IMP-1 assessed as inhibition of bacterial growth at 0.3 ug in absence of meropenem incubated overnight by paper disk method; assay type: functional, organism-based; settings: dose 0.3 µg
Pseudomonas aeruginosa [35] = assay: Antibacterial activity against Pseudomonas aeruginosa KB367 expressing IMP-1 assessed as inhibition of bacterial growth at 0.1 ug in absence of meropenem incubated overnight by paper disk method; assay type: functional, organism-based; settings: dose 0.1 µg
Pseudomonas aeruginosa [36] = assay: Antibacterial activity against Pseudomonas aeruginosa KB367 expressing IMP-1 assessed as inhibition of bacterial growth at 0.03 ug in absence of meropenem incubated overnight by paper disk method; assay type: functional, organism-based; settings: dose 0.03 µg
Pseudomonas aeruginosa [37] = assay: Antibacterial activity against Pseudomonas aeruginosa KB367 expressing IMP-1 assessed as inhibition of bacterial growth at 0.01 ug in absence of meropenem incubated overnight by paper disk method; assay type: functional, organism-based; settings: dose 0.01 µg

IC50 [1] [µg/mL] | SMILES | zone of inhibition at 100 µg/disc (Escherichia coli [2]) [mm] | zone of inhibition at 30 µg/disc (Escherichia coli [3]) [mm] | zone of inhibition at 10 µg/disc (Escherichia coli [4]) [mm] | zone of inhibition at 3 µg/disc (Escherichia coli [5]) [mm] | zone of inhibition at 1 µg/disc (Escherichia coli [6]) [mm] | zone of inhibition at 0.3 µg/disc (Escherichia coli [7]) [mm] | zone of inhibition at 0.1 µg/disc (Escherichia coli [8]) [mm] | zone of inhibition at 0.03 µg/disc (Escherichia coli [9]) [mm] | inhibition zone (IZ) (Escherichia coli [10]) | inhibition zone (IZ) (Escherichia coli [11]) | inhibition zone (IZ) (Escherichia coli [12]) | inhibition zone (IZ) (Escherichia coli [13]) | inhibition zone (IZ) (Escherichia coli [14]) | inhibition zone (IZ) (Escherichia coli [15]) | inhibition zone (IZ) (Escherichia coli [16]) | inhibition zone (IZ) (Escherichia coli [17]) | inhibition zone (IZ) (Escherichia coli [18]) | inhibition zone (IZ) (Escherichia coli [19]) | zone of inhibition at 100 µg/disc (Pseudomonas aeruginosa [20]) [mm] | other results
2.2 | CC/C=C/C(C(=O)[O-])=C(\CCC)C(=O)[O-].[Na+].[Na+] | 30 | 28 | 26 | 21 | 19 | 16 | 13 | 11 | inactive | inactive | inactive | inactive | inactive | inactive | inactive | inactive | inactive | inactive | 23 | zone of inhibition at 30 µg/disc (Pseudomonas aeruginosa [21]): 19 mm; zone of inhibition at 10 µg/disc (Pseudomonas aeruginosa [22]): 14 mm; zone of inhibition at 3 µg/disc (Pseudomonas aeruginosa [23]): 7 mm; inhibition zone (IZ) (Pseudomonas aeruginosa [24]; dose 1.0 µg): inactive; inhibition zone (IZ) (Pseudomonas aeruginosa [25]): inactive; inhibition zone (IZ) (Pseudomonas aeruginosa [26]): inactive; inhibition zone (IZ) (Pseudomonas aeruginosa [27]): inactive; inhibition zone (IZ) (Pseudomonas aeruginosa [28]): inactive; inhibition zone (IZ) (Pseudomonas aeruginosa [29]): inactive; inhibition zone (IZ) (Pseudomonas aeruginosa [30]): inactive; inhibition zone (IZ) (Pseudomonas aeruginosa [31]): inactive; inhibition zone (IZ) (Pseudomonas aeruginosa [32]): inactive; inhibition zone (IZ) (Pseudomonas aeruginosa [33]): inactive; inhibition zone (IZ) (Pseudomonas aeruginosa [34]): inactive; inhibition zone (IZ) (Pseudomonas aeruginosa [35]): inactive; inhibition zone (IZ) (Pseudomonas aeruginosa [36]): inactive; inhibition zone (IZ) (Pseudomonas aeruginosa [37]): inactive
0.55 (≈ 1.58 µM) | CCCCC(C(=O)N1CCCCC1)=C(C(=O)O)c1ccc(O)c(O)c1 | 24 | 23 | 21 | 20 | 17 | 15 | 12 | 10 | inactive | inactive | inactive | inactive | inactive | inactive | inactive | inactive | inactive | inactive | 16 | zone of inhibition at 30 µg/disc (Pseudomonas aeruginosa [21]): 13 mm; zone of inhibition at 10 µg/disc (Pseudomonas aeruginosa [22]): 12 mm; zone of inhibition at 3 µg/disc (Pseudomonas aeruginosa [23]): 12 mm; zone of inhibition at 1 µg/disc (Pseudomonas aeruginosa [24]; read-out: IZ): 9 mm; inhibition zone (IZ) (Pseudomonas aeruginosa [25]): inactive; inhibition zone (IZ) (Pseudomonas aeruginosa [26]): inactive; inhibition zone (IZ) (Pseudomonas aeruginosa [27]): inactive; inhibition zone (IZ) (Pseudomonas aeruginosa [28]): inactive; inhibition zone (IZ) (Pseudomonas aeruginosa [29]): inactive; inhibition zone (IZ) (Pseudomonas aeruginosa [30]): inactive; inhibition zone (IZ) (Pseudomonas aeruginosa [31]): inactive; inhibition zone (IZ) (Pseudomonas aeruginosa [32]): inactive; inhibition zone (IZ) (Pseudomonas aeruginosa [33]): inactive; inhibition zone (IZ) (Pseudomonas aeruginosa [34]): inactive; inhibition zone (IZ) (Pseudomonas aeruginosa [35]): inactive; inhibition zone (IZ) (Pseudomonas aeruginosa [36]): inactive; inhibition zone (IZ) (Pseudomonas aeruginosa [37]): inactive
